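Compound exposure: 48 hours, 5 concentrations, 96-well plates. The concentration for 50% growth inhibition is given as GI50.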 Activity calls are given as the source filed them. No stated cut-off is given here; in the data, active = GI50 up to about 1.1 µM and inactive = higher.
Columns and labels:
Test in all cases: DTP human tumour cell line panel, 48 h
M14 = tested on: M14
SK-MEL-2 = tested on: SK-MEL-2
OVCAR-4 = tested on: OVCAR-4
UO-31 = tested on: UO-31
SK-OV-3 = tested on: SK-OV-3
ACHN = tested on: ACHN
BT-549 = tested on: BT-549
SF-539 = tested on: SF-539
KM12 = tested on: KM12
UACC-257 = tested on: UACC-257
RXF 393 = tested on: RXF 393
SK-MEL-28 = tested on: SK-MEL-28
SK-MEL-5 = tested on: SK-MEL-5
NCI/ADR-RES = tested on: NCI/ADR-RES
LOX IMVI = tested on: LOX IMVI
786-0 = tested on: 786-0
SNB-75 = tested on: SNB-75
SN12C = tested on: SN12C
SW-620 = tested on: SW-620
HL-60 = tested on: HL-60
SF-268 = tested on: SF-268
CAKI-1 = tested on: CAKI-1
SR = tested on: SR
T47D = tested on: T47D
MDA-MB-231 = tested on: MDA-MB-231
NCI-H522 = tested on: NCI-H522
HCT-15 = tested on: HCT-15
HCT-116 = tested on: HCT-116
MDA-N = tested on: MDA-N
NCI-H460 = tested on: NCI-H460
HT-29 = tested on: HT-29
OVCAR-8 = tested on: OVCAR-8
SF-295 = tested on: SF-295
EKVX = tested on: EKVX
NCI-H226 = tested on: NCI-H226
OVCAR-3 = tested on: OVCAR-3
TK-10 = tested on: TK-10
CCRF-CEM = tested on: CCRF-CEM
UACC-62 = tested on: UACC-62
U-251 = tested on: U-251
MOLT-4 = tested on: MOLT-4
Hs-578T = tested on: Hs-578T
DU-145 = tested on: DU-145
A549 = tested on: A549
SNB-19 = tested on: SNB-19
K562 = tested on: K562
IGROV-1 = tested on: IGROV-1
NCI-H23 = tested on: NCI-H23
HOP-62 = tested on: HOP-62
PC-3 = tested on: PC-3
OVCAR-5 = tested on: OVCAR-5
Malme-3M = tested on: Malme-3M
HCC 2998 = tested on: HCC 2998
COLO 205 = tested on: COLO 205
MCF7 = tested on: MCF7
MDA-MB-435 = tested on: MDA-MB-435

With `O=P1(Cc2ccccc2)N(Cc2ccccc2)[C@@H]2CCCC[C@H]2N1Cc1ccccc1` the GI50 (M14) was 4.34 µM (inactive), the GI50 (SK-MEL-2) was 11.2 µM (inactive) and the GI50 (OVCAR-4) was 3.01 µM (inactive). For the same compound, the GI50 (UO-31) was 6.52 µM (inactive), the GI50 (SK-OV-3) was 13 µM (inactive) and the GI50 (ACHN) was 12.4 µM (inactive). For the same compound, the GI50 (BT-549) was 17.7 µM (inactive), the GI50 (SF-539) was 17 µM (inactive) and the GI50 (KM12) was 5.86 µM (inactive). The GI50 (UACC-257) was 6.41 µM (inactive), the GI50 (RXF 393) was 9.51 µM (inactive) and the GI50 (SK-MEL-28) was 16.8 µM (inactive). The GI50 (SK-MEL-5) was 1.79 µM (inactive), the GI50 (NCI/ADR-RES) was 5.85 µM (inactive) and the GI50 (LOX IMVI) was 12.2 µM (inactive). The GI50 (786-0) was 13 µM (inactive), the GI50 (SNB-75) was 6.79 µM (inactive) and the GI50 (SN12C) was 10.4 µM (inactive). For the same compound, the GI50 (SW-620) was 10.1 µM (inactive), the GI50 (HL-60) was 4.67 µM (inactive) and the GI50 (SF-268) was 11.1 µM (inactive). The GI50 (CAKI-1) was 10.4 µM (inactive), the GI50 (SR) was 2.69 µM (inactive) and the GI50 (T47D) was 5.48 µM (inactive). The GI50 (MDA-MB-231) was 10.6 µM (inactive), the GI50 (NCI-H522) was 3.97 µM (inactive) and the GI50 (HCT-15) was 9.91 µM. For the same compound, the GI50 (HCT-116) was 6.73 µM (inactive), the GI50 (MDA-N) was 6.82 µM (inactive) and the GI50 (NCI-H460) was 8.07 µM (inactive). The GI50 (HT-29) was 5.32 µM (inactive), the GI50 (OVCAR-8) was 10 µM (inactive) and the GI50 (SF-295) was 6.59 µM (inactive). For the same compound, the GI50 (EKVX) was 9.62 µM (inactive), the GI50 (NCI-H226) was 2.2 µM (inactive) and the GI50 (OVCAR-3) was 7.23 µM (inactive). For the same compound, the GI50 (TK-10) was 13.5 µM (inactive), the GI50 (CCRF-CEM) was 4.76 µM (inactive) and the GI50 (UACC-62) was 7.74 µM (inactive). For the same compound, the GI50 (U-251) was 11.1 µM (inactive), the GI50 (MOLT-4) was 2.72 µM (inactive) and the GI50 (Hs-578T) was 10.7 µM (inactive). The GI50 (DU-145) was 12.6 µM (inactive), the GI50 (A549) was 6.17 µM (inactive) and the GI50 (SNB-19) was 10.6 µM (inactive). The GI50 (K562) was 5 µM (inactive), the GI50 (IGROV-1) was 6.18 µM (inactive) and the GI50 (NCI-H23) was 9.98 µM (inactive). The GI50 (HOP-62) was 15.5 µM (inactive), the GI50 (PC-3) was 4.18 µM (inactive) and the GI50 (OVCAR-5) was 11.6 µM (inactive). The GI50 (Malme-3M) was 17.9 µM (inactive), the GI50 (HCC 2998) was 8.89 µM (inactive) and the GI50 (COLO 205) was 5.77 µM (inactive). The GI50 (MCF7) was 6.89 µM (inactive) and the GI50 (MDA-MB-435) was 5.96 µM (inactive).

Source: ChEMBL document CHEMBL1201862, “PubChem BioAssay data set” (2004)
